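Dose response: 5 concentrations. Exposure: 48 h. Format: 96-well plates. Endpoint: linear interpolation; highest concentration if not reached. Abbreviation: GI50, concentration required for 50% inhibition of growth. The concentration for full growth arrest is given as TGI.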
Experiments:
Assay in all cases: NCI tumour cell line growth inhibition, 48 h
RPMI-8226 leukemia = system: RPMI-8226 leukemia
NCI-H23 lung = system: NCI-H23 lung
SR leukemia = system: SR leukemia
UACC-62 melanoma = system: UACC-62 melanoma
UACC-257 melanoma = system: UACC-257 melanoma
SF-268 CNS = system: SF-268 CNS
786-0 renal = system: 786-0 renal
NCI-H226 lung = system: NCI-H226 lung
SF-295 CNS = system: SF-295 CNS
MDA-MB-231 breast = system: MDA-MB-231 breast

Row | Structure (SMILES) | TGI (RPMI-8226 leukemia) [µM] | TGI (NCI-H23 lung) [µM] | TGI (SR leukemia) [µM] | TGI (UACC-62 melanoma) [µM] | TGI (UACC-257 melanoma) [µM] | TGI (SF-268 CNS) [µM] | TGI (786-0 renal) [µM] | TGI (NCI-H226 lung) [µM] | TGI (SF-295 CNS) [µM] | GI50 (MDA-MB-231 breast) [µM] | TGI (MDA-MB-231 breast) [µM] | GI50 (RPMI-8226 leukemia) [µM] | GI50 (UACC-62 melanoma) [µM] | GI50 (SF-268 CNS) [µM] | GI50 (786-0 renal) [µM] | GI50 (SF-295 CNS) [µM]
1 | COc1cccc(C=NC23CC4CC(CC(C4)C2)C3)c1 | > 100 | > 100 | > 100 | > 100 | > 100 | > 100 | > 100 | > 100 | > 100 |  |  |  |  |  |  | 
2 | C[C@]12CC[C@H](OC(=O)Nc3ccccc3)CC1=CC[C@@H]1C2CC[C@]2(C)/C(=N/OC(=O)Nc3ccccc3)CCC12 (some centres not stated) | > 100 | > 100 |  | > 100 |  | > 100 | > 100 |  | > 100 |  |  |  |  |  |  | 
3 | COc1ccc(OCC(=O)O)c2c1CCC(C)C2=O (configuration not stated) | > 100 |  |  | > 100 | > 100 | > 100 | > 100 |  | > 100 |  |  |  |  |  |  | 
4 | COc1c2c(c(O)c3c4c(c(C)cc13)C1OC3(C(OC)OC5CC(C)(O)C(OC6CC(C)(O)C(O)C(C)O6)C(C)O5)OC1C(OC)(O4)C31CO1)C(=O)C(O)CC2OC1CC(C)(O)C(OC(C)=O)C(C)O1 (configuration not stated) | < 0.01 | < 0.01 |  | < 0.01 | < 0.01 | 0.0167 | < 0.0115 | < 0.01 | < 0.023 |  |  |  |  |  |  | 
5 | O=C1N=C2N=C(c3ccc(Cl)cc3)N(c3ccc(Cl)cc3)N2Sc2ccccc21 | > 100 | > 100 |  | > 100 | > 100 | > 100 | > 100 | > 100 | > 100 |  |  |  |  |  |  | 
6 | O=C(NCCCN1CCN(CCCNC(=O)Nc2cc(Cl)ccc2Cl)CC1)Nc1cc(Cl)ccc1Cl | > 100 | > 100 |  | > 100 | 34 | > 100 | > 100 | > 100 | > 100 |  |  |  |  |  |  | 
7 | C/C(=C\c1ccccc1)C(=O)c1c(C)cc(C)cc1C | > 100 | > 100 | > 100 | > 100 | > 100 | > 100 | > 100 | > 100 | > 100 |  |  |  |  |  |  | 
8 | Cc1nc(Nc2ccc(Cl)cc2)sc1C(=O)Nc1cccc2c(=O)[nH][nH]c(=O)c12 |  | 40.5 | 64.8 | 16.4 | > 100 | > 100 | 47.9 | > 100 | 74.3 |  |  |  |  |  |  | 
9 | Fc1ccc(-c2ncn(C3CCNCC3)c2-c2ccnc(Oc3ccc(Cl)cc3)n2)cc1 | 15.3 |  |  | 8.04 |  | > 25 | 10.8 |  | 9.26 | 4.46 | 8.6 | 5.44 | 4.18 | 8.67 | 4.54 | 4.39
10 | CC(NC1CCCC[C@@H]1O)c1ccccc1 (some centres not stated) | > 100 |  |  | > 100 | > 100 |  | > 100 | > 100 | > 100 |  |  |  |  |  |  | 
11 | Nc1ccc(C(=O)N/C(=C\c2ccc3c(c2)OCO3)c2nc3ccccc3s2)cc1 |  |  | 53.4 | 33.2 |  | 24.2 | 23.7 |  | 30.3 |  |  |  |  |  |  | 
12 | O=C(C#Cc1ccccc1)NC/C=C/c1ccccc1 |  | > 100 | > 100 | > 100 | > 100 | > 100 | 56.2 | 93.8 | > 100 |  |  |  |  |  |  | 
13 | O=C(Nc1ccccc1)N1C(c2ccccc2)=N[C@@H](c2ccccc2)[C@@H]1c1ccccc1 | 61.3 | 55.4 | 40.4 | 34.7 | 35.3 | 49.2 | 34.7 | 46.4 | 62.7 |  |  |  |  |  |  | 
